Experimental data reported in PubChem BioAssay (NCI).
Where “and” joins values, the source holds several entries; their conditions need not be identical. Identical values can stand only once.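 Grown in 96-well plates, cells were treated for 48 hours with each compound at five concentrations. Insufficient inhibition: endpoint recorded as highest concentration tested. GI50 marks 50% less growth. TGI marks complete inhibition of growth.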

Columns and labels:
Test in all cases: NCI tumour cell line growth inhibition, 48 h
ACHN renal = test system: ACHN renal
COLO 205 colon = test system: COLO 205 colon
HL-60(TB) leukemia = test system: HL-60(TB) leukemia
HS 578T breast = test system: HS 578T breast
MCF7 breast = test system: MCF7 breast
MOLT-4 leukemia = test system: MOLT-4 leukemia
PC-3 prostate = test system: PC-3 prostate
SK-OV-3 ovarian = test system: SK-OV-3 ovarian
SNB-19 CNS = test system: SNB-19 CNS
NCI-H522 lung = test system: NCI-H522 lung

Row | SMILES | TGI (ACHN renal) [µM] | TGI (COLO 205 colon) [µM] | TGI (HL-60(TB) leukemia) | TGI (HS 578T breast) [µM] | TGI (MCF7 breast) [µM] | TGI (MOLT-4 leukemia) [µM] | TGI (PC-3 prostate) [µM] | TGI (SK-OV-3 ovarian) [µM] | TGI (SNB-19 CNS) [µM] | TGI (NCI-H522 lung) [µM] | GI50 (COLO 205 colon) [µM] | GI50 (HS 578T breast) [µM] | GI50 (MCF7 breast) [µM] | GI50 (MOLT-4 leukemia) [µM] | GI50 (NCI-H522 lung) [µM] | GI50 (PC-3 prostate) [µM] | GI50 (SK-OV-3 ovarian) [µM]
1 | CNC(=O)OCC1=C(COC(=O)NC)C(C)N(c2ccc(OC)cc2)C1 (stereo not given) | > 100 | > 100 | 55.2 µM | > 100 | > 100 | > 100 | > 100 | > 100 | > 100 |  |  |  |  |  |  |  | 
2 | COC(=O)C1CCC(=O)N1C(c1ccccc1)c1ccc(OC)c(OC)c1 (stereo not given) | > 100 | > 100 | > 100 µM | > 100 | > 100 |  | > 100 | > 100 | > 100 | > 100 |  |  |  |  |  |  | 
3 | Cc1cc(O)c2c(=O)c3ccccc3[nH]c2c1 | > 100 | 42 | 64.7 µM | 84.6 | > 100 | > 100 | 77.3 | > 100 | > 100 | 16 |  |  |  |  |  |  | 
4 | O=C(O)CN(CC(=O)O)C1CCCCC1N(CC(=O)O)CC(=O)NCCN=C=S (stereo not given) | > 100 |  | > 100 µM | > 100 | > 100 | > 100 | > 100 | > 100 | > 100 | > 100 |  |  |  |  |  |  | 
5 | Cc1cc(N(CCC#N)CCC#N)ccc1/C(N=Nc1ccc(Cl)cc1)=N\NC(=O)c1ccccc1 | > 100 | 94.1 | > 100 µM | 55 | > 100 | > 100 | > 100 | > 100 | > 100 | 48.1 |  |  |  |  |  |  | 
6 | COc1cc(/C=C/C(=N\NS(=O)(=O)c2ccc(C)cc2)c2sc(NNC(C)=O)nc2C)ccc1O | > 100 | > 100 | > 100 µM | > 100 | > 100 | > 100 | > 100 | > 100 | > 100 | > 100 |  |  |  |  |  |  | 
7 | CCCNC1=C2CC(C)CC(OC)[C@@H](O)[C@H](C)/C=C(\C)C(OC(N)=O)C(OC)/C=C\C=C(/C)C(=O)NC(=CC1=O)C2=O (stereo not given in full) | 91.4 | 12.7 | 2.34 µM and 0.547 µM | 36.8 | 28.5 | 13.5 | > 100 | > 100 | > 100 | 28.6 | 0.0141 | 0.625 | 0.0525 | 0.492 | 0.361 | 0.477 | 0.0747
8 | COc1c(C)c(C/C=C(\C)CCCCO[Si](c2ccccc2)(c2ccccc2)C(C)(C)C)c(OC)c(OC)c1OC | 25.1 | 39.9 | > 100 µM | > 100 | > 46.4 | > 46.4 | > 100 | > 46.4 | > 46.4 | > 100 |  |  |  |  |  |  | 
9 | CC[C@@]1(C[C@H]2C[C@@]3(C(=O)OC)c4[nH]c5ccccc5c4CCN3C2=O)COC2(CCCCC2)O1 | > 100 | > 100 | > 100 µM | 87 | 91.4 | > 100 | > 100 | > 100 | > 100 | > 100 |  |  |  |  |  |  | 
10 | COc1ccc(N2C(=O)C3c4[nH]c5ccccc5c4C4CCC(C(C)(C)C)CC4C3C2=O)c(C)c1 (stereo not given) | > 100 | > 100 | > 100 µM | > 100 | > 100 | > 100 | > 100 | > 100 | > 100 | > 100 |  |  |  |  |  |  | 
11 | C=C(Br)C(C)(Cl)CCC(Br)C(C)(C)Cl (stereo not given) | 75 | 64.6 | 80.6 µM | > 100 | > 100 | > 100 | > 100 | > 100 | > 100 | > 100 |  |  |  |  |  |  | 
12 | CC(C)CC(=O)OC[n+]1ccc(-c2c(COC(=O)NC(C)C)c(COC(=O)NC(C)C)c3n2CCC3)cc1 | > 100 | > 100 | > 100 µM | > 100 | > 100 | > 100 | > 100 | > 100 | > 100 | > 100 |  |  |  |  |  |  | 
13 | O=C1/C(=C/c2ccc(O)cc2)CC/C1=C\c1ccc(O)cc1 | > 100 | > 100 | 34.5 µM | > 100 | > 100 | > 52.8 | > 100 | > 100 | > 100 | > 100 |  |  |  |  |  |  | 
14 | Oc1cc2c3c(c1)c1cc4c(cc1c[n+]3CC2)OCO4 | > 100 | > 40.6 | > 27.3 µM | 13.6 | > 100 |  | 37.3 | > 100 | 10.2 | 4.38 |  |  |  |  |  |  | 
15 | C(/c1ccco1)=c1/nc(-c2ccccc2)n2c1nc1ccccc12 | > 100 | > 100 | > 100 µM | > 100 | > 100 | 33.5 | 9.43 | > 100 | > 100 |  |  |  |  |  |  |  | 
16 | CN1CCN([C@H]2C[C@H]3[C@@H]4CC=C5C[C@@H](O)CC[C@]5(C)[C@H]4CC[C@]3(C)C2=O)CC1 | > 100 | > 100 | > 100 µM | > 100 | > 100 | > 100 | > 100 | > 100 | > 100 | > 100 |  |  |  |  |  |  | 
17 | O=C1OCC(O)=C1C(c1ccc(Cl)cc1)c1cc2c(cc1O)OCO2 (stereo not given) | > 100 | > 100 | > 100 µM | > 100 | > 100 | > 100 | > 100 | > 100 | > 100 |  |  |  |  |  |  |  | 
18 | O=S1(=O)NC(=NCc2c[nH]c3ccccc23)N(c2ccccc2)c2ccncc21 | > 100 | > 100 | > 100 µM | 92.7 | > 100 | > 100 | > 100 | > 100 | > 100 | 92.7 |  |  |  |  |  |  | 
19 | N=c1n(C(=O)N2CCCC2)c2cc(Cl)ccc2n1C1=NCCN1 | > 100 | > 100 | > 100 µM | > 100 | > 100 | > 100 | > 100 | > 100 | > 100 | > 100 |  |  |  |  |  |  | 
20 | CCOC(=O)N1CCC2(CC1)C[C@](C)(C(C)=O)C(C)O2 (stereo not given in full) | > 100 | > 100 | 17.8 µM | > 100 | > 100 | > 100 | > 100 | > 100 | > 100 | > 100 |  |  |  |  |  |  | 
21 | Cc1cc(=O)[nH]c(NN2C(Cl)C(=O)C2c2ccccc2O)n1 (stereo not given) | > 100 | > 76.8 | > 100 µM | > 100 | > 100 | > 100 | > 100 | > 100 | > 100 |  |  |  |  |  |  |  | 
